Experimental data taken from patent US4680382A, “Analogues of actinomycin D” (priority 1986, dated 1987).

Legend:
[1] = system: liver microsomes; assay: EPR detection of free-radical intermediates with liver microsomes and NADPH (anaerobic); format: biochemical; settings: NADPH, potassium phosphate buffer
Experimental: No free-radical intermediates were detected in the absence of enzyme or substrates.
Melting points are determined on a Thomas-Hoover melting point apparatus at a heating rate of 2° C./min. Thin-layer chromatography was performed on silica gel plates (Brinkmann Instrument Inc.). Solvent systems were (A) EtOAc-acetone (4:1), (B) CHCl3 -MeOH (9:1) and (C) Cifferri, the organic phase of the mixture EtOAc-MeOH-H2 O (20:1:20). High-performance liquid chromatography was carried out on a Varian Model 5020 gradient liquid chromatograph equipped with a CD-111L chromatography data system and fitted with a Varian reversed-phase C18 column with the following solvent systems: I, CH3 CN-5 mM NH4 OAc buffer, pH 6.4 (68:32 isocratic), flow rate 1.5 mL/min; II, 65-95% water-methanol gradient for 70 min, 1 mL/min; III, 10-90% H2 O-MeOH gradient for 120 min, 1 mL/min, with UV-visible variable- and fixed-wavelength dual detectors at 254, 440, 470 and 520 nm. IR spectra were obtained on a Perkin-Elmer Model 237 Infra Cord with KBr micropellets or in chloroform solutions. UV-visible spectra were obtained on a Gilford 250 spectrophorometer, which, with the addition of a base-line reference compensator (Analog Multiplexer 5053) and thermoprogrammer, auto four cell programmer and thermoelectric cell holder 2577, were used to obtain thermal denaturation curves. Specific rotation values were determined in chloroform solutions with a Cary 60 spectropolarimeter. NMR spectra were obtained in a JEOL FQ-90 MHz spectrometer equipped with Fourier transform. EPR spectra analyses were recorded in a Varian E-9 EPR spectrometer. All elemental analyses were within ±0.4%.

[2] = target: T1, NADPH cytochrome P-450 reductase (rat liver microsomes) (Rattus norvegicus, UniProt P00388); assay: Stimulation of NADPH oxidation in rat hepatic microsomal incubations; settings: for NADPH oxid: 340 nm, 37° C., phenobarbital induced microsomes, mean ± standard error of triplicate, basal 9.11 ± 0.30; for percentage stimulation of NADPH oxidation over basal rate: (drug-stimulated rate - basal rate)/basal rate × 100
T1 sequence (P00388 1-678): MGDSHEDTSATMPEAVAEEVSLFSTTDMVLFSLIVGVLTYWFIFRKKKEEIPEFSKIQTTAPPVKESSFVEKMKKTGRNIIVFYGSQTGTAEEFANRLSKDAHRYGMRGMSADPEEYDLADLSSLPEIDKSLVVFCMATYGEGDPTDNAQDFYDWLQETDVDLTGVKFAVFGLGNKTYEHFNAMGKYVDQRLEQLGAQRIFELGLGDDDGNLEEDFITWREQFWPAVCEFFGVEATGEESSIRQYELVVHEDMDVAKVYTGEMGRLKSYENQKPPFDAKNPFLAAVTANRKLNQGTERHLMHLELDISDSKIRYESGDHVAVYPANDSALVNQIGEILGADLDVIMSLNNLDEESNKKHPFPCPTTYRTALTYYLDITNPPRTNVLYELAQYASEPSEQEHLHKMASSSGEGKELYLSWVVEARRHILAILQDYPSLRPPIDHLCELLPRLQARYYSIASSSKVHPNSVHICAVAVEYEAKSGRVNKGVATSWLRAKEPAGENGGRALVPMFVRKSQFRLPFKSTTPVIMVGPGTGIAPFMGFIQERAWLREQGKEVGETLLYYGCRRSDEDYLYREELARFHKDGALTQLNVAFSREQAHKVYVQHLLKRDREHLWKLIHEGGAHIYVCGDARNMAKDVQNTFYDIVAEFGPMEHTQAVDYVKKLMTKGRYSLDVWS

[3] = system: rat hepatic microsomes; assay: Stimulation of adrenochrome formation (superoxide generation) in rat hepatic microsomal incubations; settings: no SOD; for adrenochrome formation: 480 nm, 37° C., no more than 100 μM drug, basal 2.11 ± 0.11
[4] = system: P388/S; assay: In vivo activity against P388/S (adriamycin sensitive) leukemia, Table VII; parameters: species or system BDF1 mice; settings: for P388/S % ILS / P388/S tumor-free survivors/total on day 60: at optimal dose; for P388/S optimal dose: ip, days 1, 5 and 9
Experimental: (§1) ^a Male BDF1 mice inoculated ip: 10^6 cells inoculum, day 0.
(§2) Drugs administered in 10% dimethyl sulfoxidesaline on days 1, 5 and 9. %
(§3) ILS = percent increase in life span. Fractions in parentheses = tumorfree
(§4) survivors/total on day 60. P388/S (adriamycin sensitive) and P388/ADR
(§5) (adriamycin resistant) tumors were evaluated in the same experiment with […]

[5] = system: P388/ADR; assay: In vivo activity against P388/adriamycin-resistant leukemia; parameters: species or system BDF1 mice; settings: for P388/ADR optimal dose: ip, days 1, 5 and 9
Experimental: as §1, §2, §3, §4, §5

Row | Compound | free-radical intermediate detected by EPR [1] | NADPH oxid [2] | percentage stimulation of NADPH oxidation over basal rate [2] | adrenochrome formation [3] | percentage stimulation of adrenochrome formation over basal rate [3] | P388/S % ILS [4] | P388/S tumor-free survivors/total on day 60 [4] | P388/S optimal dose [4] | P388/ADR % ILS ([5]; at optimal dose) | P388/ADR optimal dose [5] | P388/ADR tumor-free survivors/total on day 60 ([5]; at optimal dose)
1 | CCN(CC)C(=O)c1c2nc3c(C(=O)N(CC)CC)c4nc(C)oc4c(C)c3oc-2c(C)c(=O)c1N [7b] | no free-radical intermediates were detectable | 8.9 ± 0.90 nmol min^-1 (mg of protein)^-1 | -2% | 2.13 ± 0.19 nmol min^-1 (mg of protein)^-1 | +1% |  |  |  |  |  | 
2 | CCN(CC)C(=O)c1cc(=O)c(C)c2oc3c(C)c4oc(C)nc4c(C(=O)N(CC)CC)c3nc1-2 [9b] |  | 8.9 ± 0.90 nmol min^-1 (mg of protein)^-1 | -2% | 2.13 ± 0.19 nmol min^-1 (mg of protein)^-1 | +1% |  |  |  |  |  | 
3 | COc1cccc2c1C(=O)c1c(O)c3c(c(O)c1C2=O)C[C@@](O)(C(=O)CO)C[C@@H]3O[C@H]1C[C@H](N)[C@H](O)[C@H](C)O1 [adriamycin, reference compound] |  |  |  |  |  | 97% | 1/8 | 3.0 mg/kg | 33% | 3.5 mg/kg | 
4 | CO[C@@]12[C@H](COC(N)=O)C3=C(C(=O)C(C)=C(N)C3=O)N1C[C@@H]1N[C@@H]12 [mitomycin C, reference compound] |  |  |  |  |  | 136% | 1/8 | 3.0 mg/kg | 400% | 3.0 mg/kg | 5/8
